Data: paper PMC12274840 (The Journal of Biological Chemistry, 2025)
“And” between values parts separate entries of the source, which are not always exact repeats. Equal values may be shown once.

Experiments:
BlaC I105R [1] = target: T1, BlaC I105R (Mycobacterium tuberculosis, UniProt P9WKD3, I117R); assay type: biochemical
BlaC I105R [2] = target: T1, BlaC I105R; assay type: biochemical; details: pH 6.4

In the case of `NC(=O)[C@@H]1CC[C@@H]2CN1C(=O)N2OS(=O)(=O)O` [avibactam], the “in vitro sensitivity to inhibition compared with wild type” value (BlaC I105R [1]) is reported as “less sensitive”, the k2 (BlaC I105R [1]) is reported as 9.5 and 9.5 10^−2 s^−1 and the k-2 (BlaC I105R [1]) is reported as 0.1 and 0.1 10^−3 s^−1.
With `O=C(Cc1cccs1)N[C@@H]1C(=O)N2C(C(=O)O)=C(/C=C/c3ccc([N+](=O)[O-])cc3[N+](=O)[O-])CS[C@H]12` [nitrocefin] the ka (BlaC I105R [1]) was 180000 M⁻¹ s⁻¹, the kc (BlaC I105R [1]) was 40 s⁻¹ and 57 s⁻¹ and the kcat (BlaC I105R [2]) was 24 ± 2 s⁻¹.
For `O=C(O)[C@H]1/C(=C/CO)O[C@@H]2CC(=O)N21` [clavulanic acid], the “in vitro sensitivity to inhibition compared with wild type” value (BlaC I105R [1]) was “less sensitive”, the k1 (BlaC I105R [1]) was 1e+06 M⁻¹ s⁻¹ and the k2 (BlaC I105R [1]) was 4.6 and 4.6 10^−2 s^−1. The k3 (BlaC I105R [1]) was 2 and 2 10^−3 s^−1.
`CC1(C)S[C@@H]2[C@H](NC(=O)[C@H](N)c3ccccc3)C(=O)N2[C@H]1C(=O)O` [ampicillin] was tested, and the kcat (BlaC I105R [2]) was 3.4 ± 0.1 s⁻¹.
`CC1(C)S[C@@H]2[C@H](NC(=O)C(C(=O)O)c3ccccc3)C(=O)N2[C@H]1C(=O)O` (stereo partly drawn) [carbenicillin] gave a kcat (BlaC I105R [2]) of 0.27 ± 0.01 s⁻¹.
